In patent US10167279B2 (NOVARTIS AG, priority 2014, dated 2019) one finds IC50 data, which are given here for 26 compounds.

For the experiment, the target named is C-Raf FL (Homo sapiens (Human), UniProt P04049, Y340E/Y341E). Description: In vitro Raf activity determination (Alpha Screen, phospho-MEK), C-Raf FL (full length, Y340E/Y341E). Type of experiment: biochemical. As to conditions: ATP 1 μM; 60 min pre-incubation; 1 hour reaction; column head does not say FL or TR. An excerpt: The activity of a compound according to the present invention can be assessed by well-known in vitro & in vivo methods. Raf inhibition data provided herein was obtained using the following procedures.
C-Raf FL, sequence (P04049 whole entry Y340E/Y341E): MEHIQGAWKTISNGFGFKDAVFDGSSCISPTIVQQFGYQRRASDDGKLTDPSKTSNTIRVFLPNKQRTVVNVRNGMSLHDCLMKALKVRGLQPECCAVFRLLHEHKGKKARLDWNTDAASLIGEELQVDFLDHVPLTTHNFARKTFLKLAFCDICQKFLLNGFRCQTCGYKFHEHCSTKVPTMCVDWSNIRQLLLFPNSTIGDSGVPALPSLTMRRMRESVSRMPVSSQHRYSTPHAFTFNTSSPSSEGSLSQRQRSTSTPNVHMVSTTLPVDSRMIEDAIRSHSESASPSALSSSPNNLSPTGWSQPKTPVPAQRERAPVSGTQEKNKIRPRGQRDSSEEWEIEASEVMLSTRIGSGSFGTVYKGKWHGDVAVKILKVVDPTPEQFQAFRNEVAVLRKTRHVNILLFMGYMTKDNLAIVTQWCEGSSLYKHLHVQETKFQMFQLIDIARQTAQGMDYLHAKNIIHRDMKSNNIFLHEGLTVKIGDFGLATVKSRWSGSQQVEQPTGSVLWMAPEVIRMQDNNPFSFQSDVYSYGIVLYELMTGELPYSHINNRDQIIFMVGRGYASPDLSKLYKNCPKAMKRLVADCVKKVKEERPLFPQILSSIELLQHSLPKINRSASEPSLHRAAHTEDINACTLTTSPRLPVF
C-Raf FL, sequence (P63104 whole entry partner): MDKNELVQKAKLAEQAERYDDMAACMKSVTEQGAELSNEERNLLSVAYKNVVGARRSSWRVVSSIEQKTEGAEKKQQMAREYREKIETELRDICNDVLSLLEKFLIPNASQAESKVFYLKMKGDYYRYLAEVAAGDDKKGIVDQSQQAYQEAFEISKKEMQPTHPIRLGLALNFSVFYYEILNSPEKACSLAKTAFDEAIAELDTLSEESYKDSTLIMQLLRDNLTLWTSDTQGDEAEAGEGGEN
Sf9 cells co-expressing both proteins were lysed and subjected to immobilized nickel chromatography and eluted with Imidazole. A second column (StrepII binding column) was used and eluted with desthiobiotin. Protein Tags were removed using Prescission enzyme and the protein was further purified using a flowthrough step to remove tags.
C-Raf TR refers to a truncated C-Raf protein, a Δ1-324 deletion mutant. C-Raf FL refers to the full-length C-Raf protein.
Full length MEK1 with an inactivating K97R ATP binding site mutation is utilized as a RAF substrate. The MEK1 cDNA was subcloned with an N-terminal (his)6 tag into a vector for E. Coli expression. The MEK1 substrate was purified from E. Coli lysate by nickel affinity chromatography followed by anion exchange. The final MEK1 preparation was biotinylated (Pierce EZ-Link Sulfo-NHS-LC-Biotin) and concentrated.
Assay protocol: Raf and biotinylated Mek (kinase dead) were combined at 2× final concentrations in assay buffer (50 mM Tris, pH 7.5, 15 mM MgCl2, 0.01% BSA and 1 mM DTT) and dispensed […] per well in assay plates (Greiner white 384 well assay plates #781207) containing […] of 40× of a Raf kinase inhibitor test compound diluted in 100% DMSO. The plate was incubated for 60 minutes at room temperature. […] The reactions were stopped and the phosphorylated product was measured using a rabbit anti-p-MEK (Cell Signaling, #9121) antibody and the Alpha Screen IgG (ProteinA) detection Kit (PerkinElmer #6760617R), by the addition of […] to the well of a mixture of the antibody (1:2000 dilution) and detection beads (1:2000 dilution of both beads) in Stop/bead buffer (25 mM EDTA, 50 mM Tris, pH 7.5, 0.01% Tween20). The additions were carried out under dark conditions to protect the detection beads from light. A lid was placed on top of the plate and incubated for 1 hour at room temperature, after which the luminescence was read on a PerkinElmer Envision instrument. The concentration of each compound for 50% inhibition (IC50) was calculated by non-linear regression using XL Fit data analysis software.
The term IC50 denotes the point on the concentration scale where inhibition reaches its midpoint. Low values mean greater potency in that assay, high ones weaker potency in that assay. In turn, `CCOc1ncc(-c2cc(NC(=O)c3ccnc(C(C)(C)C#N)c3)ccc2C)cc1C1(CF)CCOC1` (centres unmarked) [Example 288, 2-(2-cyanopropan-2-yl)-N-(3-(6-ethoxy-5-(3-(fluoromethyl)tetrahydrofuran-3-yl)pyridin-3-yl)-4-methylphenyl)isonicotinamide] came in with a concentration for half-maximal inhibition (IC50) of 0.6 nM.

For the compound `Cc1ccc(NC(=O)c2ccnc(C#N)c2)cc1-c1cc(OC[C@H](O)CO)nc(C2CCOCC2)c1` [Example 279, (R)-2-cyano-N-(3-(2-(2,3-dihydroxypropoxy)-6-(tetrahydro-2H-pyran-4-yl)pyridin-4-yl)-4-methylphenyl) isonicotinamide], the IC50 worked out at 0.07 nM.

The compound `Cc1ncc(NC(=O)c2cccc(C(F)(F)F)c2)cc1-c1cc(C2COC2)c2nccn2n1` [Example 9, N-(6-methyl-5-(8-(oxetan-3-yl)imidazo[1,2-b]pyridazin-6-yl)pyridin-3-yl)-3-(trifluoromethyl)benzamide] came in with a 50% inhibitory concentration (IC50) of 0.3 nM.

With `COc1ncc(-c2cc(NC(=O)c3ccnc(C(C)(C)C#N)c3)cnc2C)cc1C1(F)COC1` [Example 80, 2-(2-cyanopropan-2-yl)-N-(5′-(3-fluorooxetan-3-yl)-6′-methoxy-2-methyl-[3,3′-bipyridin]-5-yl)isonicotinamide], the 50% inhibitory concentration (IC50) was 2 nM.

`Cc1ncc(NC(=O)c2ccnc(C(C)(C)F)c2)cc1-c1cc(C2(F)COC2)cc(OCCO)n1` [Example 48] came in with a half-maximal inhibitory concentration (IC50) of 7.53 nM.

In turn, `Cc1ccc(NC(=O)c2ccnc(C(F)(F)CF)c2)cc1-c1cc(OCCO)nc(C2CCOCC2)c1` [Example 268, N-(3-(2-(2-hydroxyethoxy)-6-(tetrahydro-2H-pyran-4-yl)pyridin-4-yl)-4-methylphenyl)-2-(1,1,2-trifluoroethyl) isonicotinamide] had an IC50 of 0.02 nM.

Take `CCOc1ncc(-c2cc(NC(=O)c3ccnc(C(C)(C)F)c3)cnc2C)cc1C1(CF)COC1` [Example 32, N-(6′-ethoxy-5′-(3-(fluoromethyl)oxetan-3-yl)-2-methyl-[3,3′-bipyridin]-5-yl)-2-(2-fluoropropan-2-yl)isonicotinamide]: the IC50 was found to be 0.3 nM.

`Cc1ccc(NC(=O)c2cnc(C(F)(F)F)cn2)cc1-c1cc(OC[C@H](O)CO)nc(C2CCOCC2)c1` [Example 277, (R)-N-(3-(2-(2,3-dihydroxypropoxy)-6-(tetrahydro-2H-pyran-4-yl)pyridin-4-yl)-4-methylphenyl)-5-(trifluoromethyl) pyrazine-2-carboxamide]: half-maximal inhibition (IC50) required 0.2 nM.

As for `CCOc1ncc(-c2cc(NC(=O)c3cnnc(C(F)(F)F)c3)cnc2C)cc1C1CCOCC1` [Example 163, N-(6′-ethoxy-2-methyl-5′-(tetrahydro-2H-pyran-4-yl)-[3,3′-bipyridin]-5-yl)-6-(trifluoromethyl) pyridazine-4-carboxamide], the half-inhibitory concentration (IC50) is 0.3 nM.

For the compound `Cc1ccc(NC(=O)c2ccnc(C(F)(F)F)c2)cc1-c1cc(C2CCOCC2)c(N[C@H](C)CO)nn1` [Example 310, (R)-N-(3-(6-((1-hydroxypropan-2-yl)amino)-5-(tetrahydro-2H-pyran-4-yl)pyridazin-3-yl)-4-methylphenyl)-2-(trifluoromethyl) isonicotinamide], the IC50 worked out at 0.04 nM.

As for `Cc1ccc(NC(=O)c2ccnc(C(F)(F)CF)c2)cc1-c1cc(OC[C@H](O)CO)nc(C2CCOCC2)c1` [Example 273, (R)-N-(3-(2-(2,3-dihydroxypropoxy)-6-(tetrahydro-2H-pyran-4-yl)pyridin-4-yl)-4-methylphenyl)-2-(1,1,2-trifluoroethyl) isonicotinamide], the IC50 was 0.01 nM.

As for `Cc1ncc(NC(=O)c2cccc(C(F)(F)F)c2)cc1-c1cc(OCCO)nc(C2(F)COC2)c1` [Example 52, N-(2′-(3-fluorooxetan-3-yl)-6′-(2-hydroxyethoxy)-2-methyl-[3,4′-bipyridin]-5-yl)-3-(trifluoromethyl)benzamide], half-maximal inhibition (IC50) required 2.15 nM.

Compound `Cc1ccc(NC(=O)c2cnc(C(F)(F)F)cn2)cc1-c1cc(OCCO)nc(C2CCOCC2)c1` [Example 262, N-(3-(2-(2-hydroxyethoxy)-6-(tetrahydro-2H-pyran-4-yl)pyridin-4-yl)-4-methylphenyl)-5-(trifluoromethyl) pyrazine-2-carboxamide] yielded an IC50 of 1 nM.

As to `Cc1ccc(NC(=O)c2ccnc(C(C)(C)C#N)c2)cc1-c1cc(OCCO)nc(C2(C)CCOCC2)c1` [Example 208, 2-(2-cyanopropan-2-yl)-N-(3-(2-(2-hydroxyethoxy)-6-(4-methyltetrahydro-2H-pyran-4-yl)pyridin-4-yl)-4-methylphenyl) isonicotinamide], 0.5 nM corresponded to half-maximal inhibition (IC50).

Compound `Cc1ccc(NC(=O)c2cc(C(F)(F)F)nc(N(C)C)n2)cc1-c1cc(OCCO)nc(C2CCOCC2)c1` [Example 257, 2-(dimethylamino)-N-(3-(2-(2-hydroxyethoxy)-6-(tetrahydro-2H-pyran-4-yl)pyridin-4-yl)-4-methylphenyl)-6-(trifluoromethyl) pyrimidine-4-carboxamide] had an IC50 of 1 nM.

As for `Cc1ncc(NC(=O)c2cccc(C(F)(F)F)c2)cc1-c1cc(C2CCOCC2)nc(N2CCC(O)CC2)c1` [Example 183, N-(2′-(4-hydroxypiperidin-1-yl)-2-methyl-6′-(tetrahydro-2H-pyran-4-yl)-[3,4′-bipyridin]-5-yl)-3-(trifluoromethyl) benzamide], the midpoint of inhibition, the IC50, lay at 1.99 nM.

Compound `Cc1ccc(NC(=O)c2ccnc(C(F)(F)F)c2)cc1-c1cc2c(c(C3CCOCC3)c1)OC(C)(CO)C(=O)N2` (centres unmarked) [Example 200, N-(3-(2-(hydroxymethyl)-2-methyl-3-oxo-8-(tetrahydro-2H-pyran-4-yl)-3,4-dihydro-2H-benzo[b][1,4]oxazin-6-yl)-4-methylphenyl)-2-(trifluoromethyl) isonicotinamide] yielded an IC50 of 0.5 nM.

With `Cc1ccc(NC(=O)c2ccnc(C(C)(F)F)c2)cc1-c1cc(OCCO)nc(C2(CO)CCOCC2)c1` [Example 216, 2-(1,1-difluoroethyl)-N-(3-(2-(2-hydroxyethoxy)-6-(4-(hydroxymethyl)tetrahydro-2H-pyran-4-yl)pyridin-4-yl)-4-methylphenyl) isonicotinamide], the IC50 amounted to 0.2 nM.

`Cc1ccc(NC(=O)c2ccnc(C(F)(F)F)c2)cc1-c1cc(OCCO)nc(C2(O)CCOCC2)c1` [Example 305, N-(3-(2-(2-hydroxyethoxy)-6-(4-hydroxytetra-hydro-2H-pyran-4-yl)pyridin-4-yl)-4-methylphenyl)-2-(trifluoro-methyl) isonicotinamide] displayed an IC50 of 0.331 nM.

On to `Cc1ccc(NC(=O)c2cc(C(F)(F)F)ccn2)cc1-c1cc2c(c(C3CCOCC3)c1)OC(C)(C)C(=O)N2` [Example 199, N-(3-(2,2-dimethyl-3-oxo-8-(tetrahydro-2H-pyran-4-yl)-3,4-dihydro-2H-benzo[b][1,4]oxazin-6-yl)-4-methylphenyl)-4-(trifluoromethyl) picolinamide], for which inhibition was half-maximal at 1 nM (IC50).

`COCCOc1nnc(-c2cc(NC(=O)c3ccnc(C(F)(F)F)c3)ccc2C)cc1C1CCOCC1` [Example 315, N-(3-(6-(2-methoxyethoxy)-5-(tetrahydro-2H-pyran-4-yl)pyridazin-3-yl)-4-methylphenyl)-2-(trifluoromethyl) isonicotinamide] gave an IC50 of 0.1 nM.

As to `Cc1ccc(NC(=O)c2ccnc(C(F)(F)F)c2)cc1-c1cc(OCCO)nc(C2(CO)CCOCC2)c1` [Example 215], it took 0.1 nM to reach half-maximal inhibition (IC50).

For the compound `Cc1ccc(NC(=O)c2cc3cnccc3nc2C(F)(F)F)cc1-c1cc(OCCO)nc(C2CCOCC2)c1` [Example 255, N-(3-(2-(2-hydroxyethoxy)-6-(terahydro-2H-pyran-4-yl)pyridin-4-yl)-4-methylphenyl)-2-(trifluoromethyl)-1,6-naphthyridine-3-carboxamide], the half-maximal inhibitory concentration (IC50) was 0.2 nM.

On to `COC1(c2cc(-c3cc(NC(=O)c4ccnc(C(F)F)c4)ccc3C)cc(OCCO)n2)COC1` [Example 158, 2-(difluoromethyl)-N-(3-(2-(2-hydroxyethoxy)-6-(3-methoxyoxetan-3-yl)pyridin-4-yl)-4-methylphenyl)isonicotin-amide], for which the IC50 came to 0.4 nM.

For the compound `CCOc1nnc(-c2cc(NC(=O)c3ccnc(C#N)c3)ccc2C)cc1C1CCOCC1` [Example 229, 2-cyano-N-(3-(6-ethoxy-5-(tetrahydro-2H-pyran-4-yl)pyridazin-3-yl)-4-methylphenyl)], the midpoint of inhibition, the IC50, lay at 0.7 nM.

Compound `CCOc1ncc(-c2cc(NC(=O)c3ccnc(C(C)(C)C#N)c3)cnc2C)cc1C1CCOCC1` [Example 164, 2-(2-cyanopropan-2-yl)-N-(6′-ethoxy-2-methyl-5′-(tetrahydro-2H-pyran-4-yl)-[3,3′-bipyridin]-5-yl)isonicotinamide] had a 50% inhibitory concentration (IC50) of 0.4 nM.
